The values that follow come from patent US20240199555A1, “APPLICATIONS OF BIASED LIGANDS OF THE SEROTONIN 5-HT7 RECEPTOR FOR THE TREATMENT OF PAIN, MULTIPLE SCLEROSIS AND THE CONTROL OF THERMOREGULATION” (Centre National de la Recherche Scientifique, priority 2021, published 2024).

By IC50 is commonly meant the concentration that inhibits the measured activity by half. Usually Ki stands for the equilibrium dissociation constant of an inhibitor or competing ligand from its target.

The structures appear in SMILES notation.

The target of experiment [1] is human 5-HT2Cedited receptor (Homo sapiens, UniProt P28335). The experiment can be described thus: Radioligand binding competition, 5-HT2Cedited. Conditions: selectivity panel.
Sequence of human 5-HT2Cedited receptor (P28335 33-458 limits assumed): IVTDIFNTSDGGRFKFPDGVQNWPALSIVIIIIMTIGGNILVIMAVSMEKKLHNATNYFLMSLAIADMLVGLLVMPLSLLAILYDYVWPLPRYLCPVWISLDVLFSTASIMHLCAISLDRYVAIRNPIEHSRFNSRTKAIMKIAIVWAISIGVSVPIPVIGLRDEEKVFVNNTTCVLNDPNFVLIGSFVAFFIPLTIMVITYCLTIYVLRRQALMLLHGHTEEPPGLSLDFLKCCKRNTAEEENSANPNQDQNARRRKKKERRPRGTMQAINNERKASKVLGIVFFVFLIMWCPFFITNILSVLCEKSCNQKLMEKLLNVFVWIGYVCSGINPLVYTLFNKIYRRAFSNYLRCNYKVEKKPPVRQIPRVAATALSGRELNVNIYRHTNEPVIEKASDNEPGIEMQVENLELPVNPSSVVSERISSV
The target in the next experiment is 5-HT7R / β-arrestin2 (Homo sapiens (Human), UniProt P34969). The experiment can be described thus: β-arrestin 2 BRET in HEK-293 cells transfected with 5-HT7R. The class given is cell-based. The settings on record: wild type 5-HT7R, intramolecular biosensor. Here is the method:
FIG. 8: Serodolin-induced ERK phosphorylation is dependent on β-arrestin 2 recruitment. (A) HEK-293 or KO β-arrestin HEK-293 cells were transiently transfected with HA-5-HT7R and stimulated with 5-CT (10 μM), Serodolin (10 μM) or Vehicle (0.1% DMSO diluted in PBS solution) used as a control for 7 min. Representative blots of three independent experiments are illustrated. (B) Quantification of p-ERK and p-c-SRC were performed using Alphascreen technology. Data are means±SEM of values obtained in three independent experiments. (C) HEK-293 cells were transiently transfected with HA-h5-HT7R with β-arrestin2 BRET biosensor (Rluc-Arrestin-YPET), then incubated with increasing doses of 5-CT, or Serodolin (10^-11 to 10^-5 M). Ligand mediated BRET changes are expressed as induced BRET changes which were generated by subtracting at each point the signal of the cells incubated with PBS (without ligand). Data were fitted using non-linear regression using GraphPad Prism software. […]
The inventors then investigated whether the Serodolin-induced β-arrestin recruitement using BRET experiments. […] After transfection of 5-HT7R-RLuc and arrestin2-YFP used as a BRET pair, the inventors evaluated the ability of 5-HT7R ligands to recruit β-arrestin. […]
Background: BRET reads energy transfer from a luciferase to a nearby fluorophore.

Sequence of 5-HT7R / β-arrestin2 (P34969 1-432): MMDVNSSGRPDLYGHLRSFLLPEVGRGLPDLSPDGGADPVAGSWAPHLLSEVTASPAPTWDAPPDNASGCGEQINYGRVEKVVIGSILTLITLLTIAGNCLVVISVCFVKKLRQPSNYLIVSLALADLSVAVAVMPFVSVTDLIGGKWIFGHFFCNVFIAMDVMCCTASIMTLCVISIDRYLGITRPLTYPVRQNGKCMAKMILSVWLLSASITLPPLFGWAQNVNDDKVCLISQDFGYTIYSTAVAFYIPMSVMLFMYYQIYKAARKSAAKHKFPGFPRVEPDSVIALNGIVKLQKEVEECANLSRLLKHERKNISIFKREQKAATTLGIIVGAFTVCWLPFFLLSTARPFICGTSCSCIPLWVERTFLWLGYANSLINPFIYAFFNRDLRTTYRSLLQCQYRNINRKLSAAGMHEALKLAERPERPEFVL

For the compound `O=c1[nH]c2ccccc2n1CN1CCN(c2ccc(F)cc2)CC1` [Serodolin], the 50% inhibitory concentration (IC50) in experiment [1] (read-out: RLB 5-HT2Cedited IC50) amounted to 1110 nM. In experiment [1] (read-out: RLB 5-HT2Cedited Ki), the inhibition constant (Ki) was determined as 182 nM. Besides, on 5-HT7R / β-arrestin2, the “BRET signal of RLuc-arrestin2-YPET biosensor” value is reported as “concentration-dependent increase of BRET signal”.
